Each structure is given as a SMILES string. pIC50: −log10 of the molar value. Counter-ions that a name gives are not always drawn.

Drawing on patent US8791267B2, “Biaryl PDE4 inhibitors for treating inflammatory, cardiovascular and CNS disorders” (Decode Genetics EHF, priority 2007, dated 2014), this text covers IC50 for 44 compounds.

One assay concerns the target PDE4 (Homo sapiens, UniProt Q08499). The assay can be described thus: In-vitro assay for PDE4 enzymes, real-time enzyme-coupled spectrophotometric assay (Table 9). It is filed as biochemical. The note with it: human PDE4D; activity class, Table 9; read-out: hPDE4D.
The target in a further assay is PDE4B (Homo sapiens, UniProt Q07343). The assay can be described thus: In-vitro assay for PDE4 enzymes, real-time enzyme-coupled spectrophotometric assay, PDE4B Activity (Table 10). It is filed as biochemical. Conditions: human PDE4B (hPDE4B), enzyme-coupled spectrophotometric assay; read-out: PDE4B Activity, hPDE4B.
PDE4B, sequence (Q07343 whole entry): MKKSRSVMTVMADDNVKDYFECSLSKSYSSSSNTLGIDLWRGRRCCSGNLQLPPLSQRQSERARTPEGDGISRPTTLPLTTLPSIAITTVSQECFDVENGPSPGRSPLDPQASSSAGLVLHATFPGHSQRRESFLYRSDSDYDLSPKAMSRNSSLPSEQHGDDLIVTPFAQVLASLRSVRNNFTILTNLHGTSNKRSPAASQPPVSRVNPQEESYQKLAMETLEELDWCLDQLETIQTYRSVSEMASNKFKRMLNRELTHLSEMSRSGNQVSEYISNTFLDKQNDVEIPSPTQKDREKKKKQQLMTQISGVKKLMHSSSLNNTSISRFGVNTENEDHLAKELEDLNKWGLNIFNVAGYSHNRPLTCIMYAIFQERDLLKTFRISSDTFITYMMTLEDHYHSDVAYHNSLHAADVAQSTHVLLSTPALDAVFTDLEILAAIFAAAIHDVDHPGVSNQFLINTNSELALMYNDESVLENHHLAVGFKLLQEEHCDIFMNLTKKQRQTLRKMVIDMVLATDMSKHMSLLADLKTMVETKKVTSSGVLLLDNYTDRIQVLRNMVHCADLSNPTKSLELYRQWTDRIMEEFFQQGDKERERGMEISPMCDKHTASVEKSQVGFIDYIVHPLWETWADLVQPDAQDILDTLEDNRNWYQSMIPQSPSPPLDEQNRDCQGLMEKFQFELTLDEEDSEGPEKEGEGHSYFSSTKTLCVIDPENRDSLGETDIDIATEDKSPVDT

PDE4, sequence (Q08499 whole entry): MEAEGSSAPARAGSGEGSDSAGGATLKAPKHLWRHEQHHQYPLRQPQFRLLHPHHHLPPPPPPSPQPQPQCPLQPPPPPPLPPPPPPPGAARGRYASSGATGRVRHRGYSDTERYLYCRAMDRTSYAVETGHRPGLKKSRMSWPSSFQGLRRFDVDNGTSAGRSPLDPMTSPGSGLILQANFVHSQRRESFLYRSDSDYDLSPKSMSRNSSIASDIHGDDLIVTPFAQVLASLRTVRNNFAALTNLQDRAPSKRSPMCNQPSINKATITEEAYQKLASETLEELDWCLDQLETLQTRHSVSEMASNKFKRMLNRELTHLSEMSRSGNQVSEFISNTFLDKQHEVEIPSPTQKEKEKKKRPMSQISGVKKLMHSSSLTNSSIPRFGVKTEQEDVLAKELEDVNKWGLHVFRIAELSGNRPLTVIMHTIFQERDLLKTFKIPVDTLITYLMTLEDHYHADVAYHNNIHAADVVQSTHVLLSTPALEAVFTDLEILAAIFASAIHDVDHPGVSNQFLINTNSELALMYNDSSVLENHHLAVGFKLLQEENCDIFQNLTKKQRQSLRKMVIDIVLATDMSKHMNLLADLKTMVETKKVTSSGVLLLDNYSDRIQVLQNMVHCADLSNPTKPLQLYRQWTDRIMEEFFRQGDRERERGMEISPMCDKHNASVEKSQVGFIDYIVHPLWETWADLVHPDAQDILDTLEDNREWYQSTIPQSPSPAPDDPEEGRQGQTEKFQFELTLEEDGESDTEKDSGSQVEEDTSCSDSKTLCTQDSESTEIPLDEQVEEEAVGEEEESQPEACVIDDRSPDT

In the case of `COc1ccc(Cc2ccc(NC(C)=O)cc2)cc1-c1cccc([N+](=O)[O-])c1` [P-114], the pIC50 on PDE4 and at PDE4B was more than 5.30 throughout.
Take `COc1cc(F)c(Cc2ccc(F)cc2)cc1-c1cccc([N+](=O)[O-])c1` [P-094, 4-Fluoro-5-(4-fluoro-benzyl)-2-methoxy-3′-nitro-biphenyl]: the pIC50 at PDE4 and on PDE4B was more than 5.30 throughout.
Consider `COc1ccc(Cc2ccc(NC(C)=O)cc2)c(O)c1-c1cccc([N+](=O)[O-])c1` [P-190, N-[4-(2-Hydroxy-6-methoxy-3′-nitro-biphenyl-3-ylmethyl)-phenyl]-acetamide], for which the pIC50 at PDE4 and on PDE4B was more than 5.30 throughout.
In the case of `COc1ccc(Cc2cccc(NC(C)=O)c2)c(F)c1-c1cccc(Cl)c1` [P-233], the pIC50 at PDE4 and at PDE4B was more than 5.30 in each case.
For `COc1ccc(Cc2cccc(CN)c2)cc1-c1cccc([N+](=O)[O-])c1` [P-161, 3-(6-Methoxy-3′-nitro-biphenyl-3-ylmethyl)-benzylamine], the pIC50 at PDE4 and at PDE4B was 4.70 to 5.30 throughout.
Take `COc1ccc(Cc2ccc3[nH]c(=O)oc3c2)c(F)c1-c1cccc(Cl)c1` [P-263]: the pIC50 at PDE4 and on PDE4B was more than 5.30 throughout.
Take `COc1ccc(Cc2ccc(CN3CCOC3=O)nc2)c(F)c1-c1cccc(Cl)c1` [P-465, 3-[5-(3′-Chloro-2-fluoro-6-methoxy-biphenyl-3-ylmethyl)-pyridin-2-ylmethyl]-oxazolidin-2-one hydrochloride]: the pIC50 at PDE4 and on PDE4B was more than 5.30 throughout.
For `COc1ccc(Cn2ccccc2=O)cc1-c1cccc(Cl)c1` [P-209, 1-(3′-Chloro-6-methoxy-biphenyl-3-ylmethyl)-1H-pyridin-2-one], the pIC50 on PDE4 is 4.70 to 5.30; at PDE4B, more than 5.30.
In the same order, the values of `CCNC(=O)Nc1ccc(Oc2ccc(OC)c(-c3cccc(C#N)c3)c2F)cn1` [P-440, 1-[5-(3′-Cyano-2-fluoro-6-methoxy-biphenyl-3-yloxy)-pyridin-2-yl]-3-ethyl-urea] are more than 5.30 and 4.70 to 5.30.
Consider `COc1ccc(Cc2ccncc2)cc1-c1cccc([N+](=O)[O-])c1` [P-008], for which the pIC50 at PDE4 and on PDE4B was more than 5.30 each time.
`COc1ccc(Cc2ccc3c(c2)OCO3)c(F)c1-c1cccc(Cl)c1` [P-242]: the pIC50 on PDE4 and on PDE4B was more than 5.30 in each case.
Regarding `COc1ccc(Cc2ccc(NC(=O)CCN3CCCCC3)cc2)cc1-c1cccc([N+](=O)[O-])c1` [P-146], the pIC50 was more than 5.30 at PDE4 and 4.70 to 5.30 on PDE4B.
In the same order, the values of `COc1ccc(Cc2ccc(N3CCC3)nc2)cc1-c1cccc(Cl)c1` [P-568, 2-azetidin-1-yl-5-(3′-chloro-6-methoxy-biphenyl-3-ylmethyl)-pyridine] are more than 5.30 and more than 5.30.
In the same order, the values of `CCOc1ccc(Cc2ccc(NC(N)=O)cc2)c(F)c1-c1cccc(C(C)=O)c1` [P-335, [4-(3′-Acetyl-6-ethoxy-2-fluoro-biphenyl-3-ylmethyl)-phenyl]-urea] are more than 5.30 and more than 5.30.
In the same order, the values of `COc1ccc(Cc2ccc(NC(=O)NC3CCCO3)cc2)cc1-c1cccc(Cl)c1` (stereo not shown) [P-566, 1-[4-(3′-Chloro-6-methoxy-biphenyl-3-ylmethyl)-phenyl]-3-(tetrahydro-furan-2-yl)-urea] are more than 5.30 and more than 5.30.
With `COc1ccc(Cn2cnc3ccccc32)cc1-c1ccc2nonc2c1` [P-014, 5-(5-Benzoimidazol-1-ylmethyl-2-methoxy-phenyl)-benzo[1,2,5]oxadiazole], the pIC50 at PDE4 and at PDE4B was 4.70 to 5.30 in each case.
For the compound `COc1ccc(Nc2ccc(NC(N)=O)cc2)cc1-c1cccc(C(C)=O)c1` [P-268, [4-(3′-acetyl-6-methoxy-biphenyl-3-ylamino)-phenyl]-urea], the pIC50 on PDE4 was more than 5.30; at PDE4B it was 4.70 to 5.30.
In the same order, the values of `COc1ccc(Cc2ccc(C=O)cc2)c(O)c1-c1cccc([N+](=O)[O-])c1` [P-180, 4-(2-Hydroxy-6-methoxy-3′-nitro-biphenyl-3-ylmethyl)-benzaldehyde] are more than 5.30 and more than 5.30.
In the same order, the values of `CCNC(=O)Nc1ccc(Cc2ccc(OC)c(-c3cccc(C#N)c3)c2F)cn1` [P-405, 1-[5-(3′-Cyano-2-fluoro-6-methoxy-biphenyl-3-ylmethyl)-pyridin-2-yl]-3-ethyl-urea hydrochloride salt] are more than 5.30 and more than 5.30.
In the same order, the values of `COc1ccc(Cc2ccc(N3CCN(C)C3=O)nc2)c(F)c1-c1cccc(Cl)c1` [P-470, 1-[5-(3′-Chloro-2-fluoro-6-methoxy-biphenyl-3-ylmethyl)-pyridin-2-yl]-3-methyl-imidazolidin-2-one] are more than 5.30 and more than 5.30.
As to `COc1ccc(CN2C(=O)C(=O)c3ccccc32)cc1-c1cccc([N+](=O)[O-])c1` [P-041, 1-(6-Methoxy-3′-nitro-biphenyl-3-ylmethyl)-1H-indole-2,3-dione], the values for the pIC50 on PDE4 and on PDE4B were 4.70 to 5.30 and more than 5.30, respectively.
In the same order, the values of `COc1ccc(Cc2ccc(CO)nc2)cc1-c1cccc(Cl)c1` [P-567, [5-(3′-Chloro-6-methoxy-biphenyl-3-ylmethyl)-pyridin-2-yl]-methanol] are more than 5.30 and more than 5.30.
In the same order, the values of `COc1ccc(Cc2ccccc2O)cc1-c1cccc([N+](=O)[O-])c1` [P-105, 2-(6-Methoxy-3′-nitro-biphenyl-3-ylmethyl)-phenol] are more than 5.30 and more than 5.30.
In the same order, the values of `COc1ccc(COc2ccnc(Cl)c2)c(F)c1-c1cccc(Cl)c1` [P-604] are more than 5.30 and more than 5.30.
On to `COc1ccc(CN2CCOC2=O)cc1-c1cccc([N+](=O)[O-])c1` [P-076, 3-(6-Methoxy-3′-nitro-biphenyl-3-ylmethyl)-oxazolidin-2-one], for which the pIC50 on PDE4 and at PDE4B was more than 5.30 each time.
As to `COc1ccc(Cn2cccn2)cc1-c1ccc2c(c1)OCO2` [P-074, 1-(3-Benzo[1,3]dioxol-5-yl-4-methoxy-benzyl)-1H-pyrazole], the figures for the pIC50 at PDE4 and at PDE4B were more than 5.30 and 4.70 to 5.30, respectively.
On to `COc1ccc(Cc2ccc(CNC(=O)C(N)=O)nc2)c(F)c1-c1cccc(Cl)c1` [P-521, N-[5-(3′-Chloro-2-fluoro-6-methoxy-biphenyl-3-ylmethyl)-pyridin-2-ylmethyl]-oxalamide], for which the pIC50 on PDE4 and at PDE4B was more than 5.30 in each case.
As to `COc1ccc(Cc2ccc(NS(C)(=O)=O)cc2)c(F)c1-c1cccc(C(C)=O)c1` [P-249], the pIC50 at PDE4 and on PDE4B was more than 5.30 in each case.
Turning to `COc1ccc(Cc2ccncc2)c(O)c1-c1cccc([N+](=O)[O-])c1` [P-017, 6-methoxy-3′-nitro-3-pyridin-4-ylmethyl-biphenyl-2-ol], the pIC50 at PDE4 and at PDE4B was more than 5.30 throughout.
Regarding `CCNC(=O)Nc1ncc(Cc2ccc(OC)c(-c3cccc(Cl)c3)c2F)cn1` [P-619], the pIC50 on PDE4 and at PDE4B was more than 5.30 each time.
In the case of `COc1ccc(Cc2cccc(O)c2)cc1-c1cccc([N+](=O)[O-])c1` [P-102, 3-(6-Methoxy-3′-nitro-biphenyl-3-ylmethyl)-phenol], the pIC50 at PDE4 and at PDE4B was more than 5.30 in each case.
As for `COc1ccc(Cc2ccccc2CN)cc1-c1cccc([N+](=O)[O-])c1` [P-133], the pIC50 on PDE4 and on PDE4B was 4.70 to 5.30 in each case.
In the case of `CCOC(=O)N(CC)c1ccc(Cc2ccc(OC)c(-c3cccc(Cl)c3)c2F)cn1` [P-359], the pIC50 at PDE4 is more than 5.30; at PDE4B it was 4.70 to 5.30.
In the same order, the values of `COc1ccc(Cn2cnc([N+](=O)[O-])c2)c(F)c1-c1cccc(Cl)c1` [P-536, 1-(3′-Chloro-2-fluoro-6-methoxy-biphenyl-3-ylmethyl)-4-nitro-1H-imidazole] are more than 5.30 and more than 5.30.
In the same order, the values of `COc1ccc(Cc2ccc(NC(N)=O)cc2)c(F)c1-c1cccc(Cl)c1` [P-243, [4-(3′-chloro-2-fluoro-6-methoxy-biphenyl-3-ylmethyl)-phenyl]-urea] are more than 5.30 and more than 5.30.
In the same order, the values of `COc1ccc(Cc2ccc(N)cn2)c(F)c1-c1cccc(Cl)c1` [P-478] are more than 5.30 and more than 5.30.
In the case of `COc1ccc(Cc2ccc(N3CCCC3)nc2)c(F)c1-c1cccc(Cl)c1` [P-582, 5-(3′-Chloro-2-fluoro-6-methoxy-biphenyl-3-ylmethyl)-2-pyrrolidin-1-yl-pyridine], the pIC50 at PDE4 and at PDE4B was more than 5.30 each time.
For the compound `COc1ccc(Nc2ccc(NS(C)(=O)=O)cc2)cc1-c1cccc(C(C)=O)c1` [P-267, N-[4-(3′-Acetyl-6-methoxy-biphenyl-3-ylamino)-phenyl]-methanesulfonamide], the pIC50 on PDE4 and at PDE4B was more than 5.30 each time.
For `COc1ccc(Oc2ccc(=O)[nH]n2)cc1-c1cccc([N+](=O)[O-])c1` [P-015, 6-(6-Methoxy-3′-nitro-biphenyl-3-yloxy)-2H-pyridazin-3-one], the pIC50 is more than 5.30 at PDE4 and 4.40 to 4.68 on PDE4B.
In the same order, the values of `O=[N+]([O-])c1cccc(-c2c(OC(F)F)ccc(Cc3ccc(F)cc3)c2F)c1` [P-116] are more than 5.30 and more than 5.30.
Regarding `COc1ccc(Cc2ccc(OCCN3CCOCC3)cc2)cc1-c1cccc([N+](=O)[O-])c1` [P-171], the pIC50 on PDE4 and on PDE4B was more than 5.30 throughout.
`COc1ccc(Cc2ccc(N3CCN(C(N)=O)CC3)nc2)c(F)c1-c1cccc(Cl)c1` [P-432]: the pIC50 on PDE4 and at PDE4B was more than 5.30 throughout.
For `CCNC(=O)Nc1ncc(Cc2ccc(OC)c(-c3cccc(C(C)=O)c3)c2F)cn1` [P-315, 1-[5-(3′-Acetyl-2-fluoro-6-methoxy-biphenyl-3-ylmethyl)-pyrimidin-2-yl]-3-ethyl-urea], the pIC50 on PDE4 and on PDE4B was more than 5.30 each time.
Consider `CCNc1ccc(Cc2ccc(OC)c(-c3cccc(Cl)c3)c2F)cn1` [P-318], for which the pIC50 at PDE4 and at PDE4B was more than 5.30 throughout.
